The results in this text go back to patent US12171744B2, “Pharmaceutical combinations for the treatment of cancer” (Presage Biosciences, Inc., priority 2016, dated 2024).

The structures appear in SMILES notation. “Also recorded” adds a separate entry of the source.

The subject of assay [1] is NU-DHL-1 diffuse large B-cell lymphoma (DLBCL) cells. Put plainly: CIVO microinjection, staining for MCL-1 and cleaved caspase-3. It counts as in vivo, mice. On the procedure:
Mice were enrolled into CIVO drug studies when the tumor volume reached approximately 1000 mm^3. […] A fluorescent tracking marker (FTM) was added to each drug reservoir in vehicle for delivery along with each drug or drug combination. […] Total amounts of agents injected are tabulated below in Table 4.
The cells were stained for cleaved caspase-3 (CC3) (shown in red) as a marker of apoptosis.

In the next assay the test system is RIVA cells. Put plainly: CIVO microinjection, CC3 expression. As to conditions: mouse, in vivo. Set-up: species or system mice. On the procedure:
(§1) Mice were enrolled into CIVO drug studies when the tumor volume reached approximately 1000 mm^3. Microinjection studies were performed using the CIVO device as previously described (Klinghoffer et al, Science Translational Medicine 2015) The device was configured with 6 injection needles set for a 6 mm injection length and a total volume delivery of 3 μl. A fluorescent tracking marker (FTM) was added to each drug reservoir in vehicle for delivery along with each drug or drug combination. All micro-doses were equivalent to or lower than what would be allowed under FDA guidelines for Exploratory IND (Investigational New Drug) studies and by solubility of drug into vehicle. Total amounts of agents injected are tabulated below in Table 4.

The test system of the next assay is Toledo cells. Briefly: CIVO microinjection, CC3 expression. As to conditions: mouse, in vivo. The arrangement: species or system mice. On the procedure:
as §1

The next assay has as its system NUDHL/Dox1000 cells. Put plainly: CIVO microinjection, CC3 expression. Set-up: species or system mice. As to conditions: mouse, in vivo. On the procedure:
(§2) Cell lines shown in Table 1, adherent or suspension, were treated in 6-well dishes or T10 flasks respectively, seeded at one million per ml density prior to treatment in total volumes of 3-10 ml. All agents used for in vitro cell treatments were formulated in water/DMSO to achieve required concentrations (as stated in respective figure labels/legends) with DMSO concentrations not exceeding 0.01%. Drug sources are indicated in table under ‘CIVO microinjection studies’. Cells were harvested at experimental time points: 2, 6, or 24 hours post treatment as indicated in respective figures, first by washing cells twice in ice-cold PBS in 15 ml falcon tubes, centrifugation at 1000 rpm for 5 mins followed by lysis of the respective cell pellets as described in section below. Note: Drug resistant NUDHL1 Dox 1000 nM and Toledo Dox 1000 nM cell lines were generated at Presage by culturing parental lines in media with stepwise increments in Doxorubicin concentration over several passages. These cells were used to generate xenografts when resistance to 1 uM Dox was achieved.
(§3) Mice were enrolled into CIVO drug studies when the tumor volume reached approximately 1000 mm^3. […]

Another assay relates to Toledo/Dox1000 cells. Briefly: CIVO microinjection, CC3 expression. Set-up: species or system mice. As to conditions: mouse, in vivo. Here is the method: as §2, §3
The test system of the next assay is HCC1187 cells. Put plainly: PCR assay of XBP1 transcription. It counts as cell-based. As to conditions: Voruciclib 1.5 uM, Bortezomib 10 nM, 4 hours. On the procedure: 1 ug of mRNA from each condition was used to generate cDNA using the High Capacity cDNA Reverse Transcription Kit (Applied Biosystems) and manufacturer's protocol. 100 ng cDNA was used to conduct a PCR assay to amplify XBP1 u or splice forms (Thermofisher PCR Supermix)—94 deg C. for 2 mins, (94 deg C. for 15 secs, 55 deg C. for 30 secs, 72 deg C. for 1 min)×30 cycles, 72 deg C. for 7 mins, hold at 4 deg C. XBP1 spiced and unspliced variants were detected.

Another assay deals with RIvA DLBCL model. Briefly: Western blot of treated cells. Type of assay: cell-based. As to conditions: increasing concentration of voruciclib, single agent. On the procedure:
as §2, with “These cells were used to generate xenografts when resistance to 1 uM Dox was achieved.” left out
Protein lysates were prepared by adding ice-cold 1×RIPA Buffer (from 10×, Millipore) with 1×-3× Halt protease and phosphatase inhibitor cocktail (100×, Pierce) to cell pellets, followed by pulse sonication (˜3-5 secs) three times. […] Protein samples were quantified using Bradford assay (Biorad) at 1:10 or higher dilutions using appropriate blank controls with 1×RIPA. […]
In general terms: In western blotting, separated proteins are transferred to a membrane and probed.

For a further assay, the system named is NUDHL1 model of DLBCL. Briefly: Xenograft tumor growth. It counts as in vivo, NOD SCID mice. As to conditions: Voruciclib 200 mpk, Venetoclax 50 mpk. On the procedure: Immune deficient NOD SCID mice were implanted with the NUDHL1 model of DLBCL. The xenografted tumors were allowed to grow in the NOD SCID host until they reached 200 mm^3, at which point the xenografted animals were randomized into 4 study groups: 1. Vehicle control; 2. […] Venetoclax at 50 mpk; and 4. […] Venetoclax was dosed by oral gavage on days 1 and 4 of each weekly cycle. Drug effects were assessed via tumor volume measurements twice weekly by a technician blinded to the treatment of each subject in the study. N=5-6 animals per treatment arm.

As to `CN1CC[C@@H](c2c(O)cc(O)c3c(=O)cc(-c4ccc(C(F)(F)F)cc4Cl)oc23)[C@@H]1CO` (relative stereo) [voruciclib, (+)-trans-2-(2-Chloro-4-trifluoromethylphenyl)-5,7-dihydroxy-8-(2-hydroxymethyl-1-methylpyrrolidin-3-yl)-chromen-4-one], the “expression of CC3 (cleaved caspase-3)” value in assay [1] (marker of apoptosis) is “slight increased; also recorded: slight effect”. Also, the “expression of MCL-1” value in assay [1] (staining, versus vehicle) is on record as “decreased”. Moreover, the CC3 expression result in the assay on RIVA cells, in the assay with Toledo cells, in the assay on NUDHL/Dox1000 cells and in the assay with Toledo/Dox1000 cells was “slight effect” in each case. The “bortezomib-induced transcriptional induction of XBP1” value in the assay with HCC1187 cells is recorded as “decreased”. In the assay on RIvA DLBCL model, the MCL-1 result is “suppresses”. Further, in the assay with RIvA DLBCL model, the “apoptosis (cPARP)” value was “increases as the concentration of voruciclib increases”. Further, the “tumor size (images)” value in the assay with NUDHL1 model of DLBCL is “smaller”.
